In article PMC5686155, “Crystal structures of the mitochondrial deacylase Sirtuin 4 reveal isoform-specific acyl recognition and regulation features” (Nature Communications, 2017):

Tests used:
[1] = target: T1, hSirt4 (Homo sapiens, UniProt Q9Y6E7); experiment: Coupled continuous enzymatic assay monitoring NAM release from NAD+ (Sirt4 deacylation); format: biochemical; settings: coupled enzymatic assay; for effect on Sirt4 de-HMG-ylation activity: HMG-CPS1 peptide; for Sirt4 deacylation signal with CypA protein as substrate: increasing amounts of protein substrate, n = 2 (Fig. 1f)
T1 construct: hSirt4(25–314) in pQE30 coding for an N-terminal His6-tag; His6 (N); made in house; host or cells: Escherichia coli CodonPlus(DE3)
T1 sequence (Q9Y6E7 25-314): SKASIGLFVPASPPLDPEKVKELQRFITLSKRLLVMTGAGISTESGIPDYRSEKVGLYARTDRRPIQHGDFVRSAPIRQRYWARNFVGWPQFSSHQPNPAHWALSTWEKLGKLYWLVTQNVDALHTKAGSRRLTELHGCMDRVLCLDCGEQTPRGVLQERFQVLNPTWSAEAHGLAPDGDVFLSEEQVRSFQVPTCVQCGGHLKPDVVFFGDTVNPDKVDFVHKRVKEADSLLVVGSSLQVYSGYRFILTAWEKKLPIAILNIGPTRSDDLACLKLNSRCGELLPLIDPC
Experimental: The seven mammalian sirtuins vary in their sequence and acyl preferences[16],[19]. […] We therefore asked whether other acyl modifications would yield deacylation efficiencies expected for a physiologically dominant Sirt4 activity.
The coupled continuous assay was performed as reported. […] Reactions were monitored in microplates at room temperature for 1 h through absorption measurements at 340 nm in a LAMBDAScan plate reader (MWG Biotech, Ebersberg, Germany).

[2] = Non-enzymatic acylation of CPS1 peptide by acyl-CoA (titration); settings: HMG-CoA titrations
[3] = target: T2, Cyclophilin A (CypA) (Homo sapiens, UniProt P62937); experiment: HMG-CoA modification of recombinant Cyclophilin A, intact protein MS; settings: CypA 0.4 mg/ml, 8 mM HMG-CoA, 100 mM Tris-HCl pH 8.3, 37 °C, 4 h
T2 construct: expression of a full-length CypA construct in pQE70 (Qiagen) in E. coli M15 cells; made in house; host or cells: E. coli M15
Experimental: The recombinant CypA was prepared through expression of a full-length CypA construct in pQE70 (Qiagen) in E. coli M15 cells and purification by ion exchange chromatography on Fractogel EMD DEAE-650(M), Fractogel TSK AF-Blue, and Fractogel SO3–650(M) (Merck Millipore)[29]. CypA protein (0.4 mg ml^−1) was modified using 8 mM HMG-CoA in 100 mM Tris-HCl buffer pH 8.3 at 37 °C for 4 h. Formation of HMG-ylated protein was confirmed by peptide-MS analyzes after tryptic digest, and by intact HMG-CypA mass analyzes through HPLC-coupled ESI-MS[56]. For intact mass determination, 25 µM HMG-CypA in 10 mM Tris/HCl pH 7.5, 50 mM NaCl was HPLC-separated with the setting described below for peptide MS, using a 30 min gradient from 1 to 55% buffer B (90% ACN, 9.9% H2O, 0.1% FA; buffer A: 5% ACN, 94.9% H2O, 0.1% FA) followed by 1 min of 55–90% buffer B with 70 µL min^−1 flow-rate. MS-analyzes were done with the settings described for peptide assays (below), except that the IntactProtein script was activated, which reduces CEM to 100. Acquired data were extracted with PeakView and deconvoluted in MassLynx in the range of 950–1500 m/z using the MaxEnt I algorithm to a resolution of 1 Da. Peak intensity values were recorded and overlaid using MassLynx.

[4] = test system: xSirt4; experiment: Thermal denaturation shift assay; format: binding, Xenopus tropicalis; settings: 3 µM xSirt4, SYPRO orange, 20 to 73 °C; n = 2
Experimental: Thermal shift assays were performed in 96-well PCR plates using 3 µM xSirt4 (32–315) or 3 µM zSirt4 (29–310) and SYPRO orange (Thermo Fisher, Waltham, MA, USA) covered with 15 µL mineral oil. Heating and fluorescence measurements were performed in a FluoDia T70 with 1 K steps from 20 to 73 °C (excitation: 465 nm, emission: 580 nm). The data were analyzed in GraFit (Erithacus Software Ltd, Horley, UK) by nonlinear fitting using a two state model.

[5] = target: T1, hSirt4; experiment: HMG-FdL (Fluor-de-Lys-like) de-HMG-ylation assay; format: biochemical
Experimental: As a convenient and complementary, fluorescence-based alternative to the coupled enzymatic assay with HMG-peptides, we established substrate and assay corresponding to the popular “Fluor-de-Lys” (FdL) deacylation assays. […] We then employed the FdL-like Sirt4 assay for studying the effects of NAM and NADH, which are not compatible with the coupled assay. […] After 20 min, developer solution (2 mM NAM and 10 mg mL^−1 trypsin) in assay buffer was added 1:1 and samples were incubated for 45 min at room temperature. Fluorescence was measures using a FluoDia T70 with excitation wavelength 365 nm and emission wavelength 465 nm.

[6] = non-enzymatic; cited from earlier work
Source text: Acetyl transferases employ acetyl-CoA for modifying proteins. However, acetyl-CoA can also non-enzymatically modify proteins, and some other acyl-CoA, such as succinyl-CoA, do so even more efficiently, likely causing the emerging variety of protein acylations[14],[28],[29],[31]. We thus analyzed whether HMG-CoA efficiently acylates peptides and proteins.

[7] = test system: xSirt4; experiment: MS-based assay of metabolite effects on xSirt4 activity; format: biochemical, Xenopus tropicalis; settings: n = 2 (Supplementary Fig. 3b)
Experimental: For MS and UV analyzes of deacylation reactions, samples were prepared as described for the coupled continuous assay, stopped by mixing 1:1 with 0.5% TFA after 0 and 60 min, diluted to 20 µM peptide using 0.1% FA, and analyzed by HPLC-separation using a Shimadzu Prominence UFLC (Shimadzu, Duisburg, Germany) coupled to ESI-MS and UV detection. Samples were washed on a Piccolo Proto 200 C4 5 μm 2.5 × 0.5 mm trap column (Higgins Analytical, Mountain View, California) and subsequently subjected to a Jupiter C4 5 μm 300 Å 150 × 1 mm analytical column (Phenomenex, Torrance, California) for reversed phase separation, with 99.9% H2O, 0.1% TFA as buffer A and 99.9% ACN, 0.1% TFA as buffer B. Peptides were eluted over a 20 min gradient from 1 to 55% buffer B, followed by 1 min from 55 to 90% buffer B with 70 µL min^−1 flow-rate. […] We detected in a mass range from 300 to 2500 m/z. […]
Supplementary Figure 3. […] (n=2; error bars: s.d.) e, Inner surfaces of the nucleotide binding sites of Sirt1-6, colored by electrostatic potential calculated with APBS2.1 in PyMOL using PDB IDs 4KXQ (Sirt1), 5D7O (Sirt2), 4BN4 (Sirt3), our xSirt4 structure, PDB IDs 3RIY (Sirt5) and 3K35 (Sirt6). […] The surfaces are colored according to electrostatic potential (red/-15 to blue/+15 kBT/e). f, xSirt4 surface colored by electrostatic potential calculated using APBS2.1 in PyMOL (red/-15 to blue/+15 kBT/e). […]

[8] = 10 and 100 μM compound, n = 2 (Fig. 4a)

T2 sequence (P62937 whole entry): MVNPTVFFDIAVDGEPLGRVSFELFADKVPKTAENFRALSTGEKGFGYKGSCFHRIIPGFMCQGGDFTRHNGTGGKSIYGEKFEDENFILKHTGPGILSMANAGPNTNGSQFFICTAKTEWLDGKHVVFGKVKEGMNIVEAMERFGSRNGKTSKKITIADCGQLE

Oc1ccc(/C=C/c2cc(O)cc(O)c2)cc1 [resveratrol]
effect on Sirt4 de-HMG-ylation activity [1, 8]: no significant effect

CC(NC(=O)c1ccccc1/N=C/c1c(O)ccc2ccccc12)c1ccccc1 (centres unmarked) [sirtinol]
effect on Sirt4 de-HMG-ylation activity [1, 8]: no significant effect

CC(C)(CO[P@@](=O)(O)O[P@@](=O)(O)OC[C@H]1O[C@@H](n2cnc3c(N)ncnc32)[C@H](O)[C@@H]1OP(=O)(O)O)[C@@H](O)C(=O)NCCC(=O)NCCSC(=O)C[C@@](C)(O)CC(=O)O [HMG-CoA]
bimolecular rate constant of CPS1 peptide acylation [2]: (4.0 ± 0.8)×10^–10 μM^−1 s^−1 | number of HMG-modifications on CypA [3]: 1–7

Nc1ncnc2c1ncn2[C@@H]1O[C@H](COP(=O)(O)OP(=O)(O)OC[C@H]2OC(O)[C@H](O)[C@@H]2O)[C@@H](O)[C@H]1O (some centres unmarked) [ADPr, ADP-ribose]
Sirt4 stabilization in thermal denaturation shift experiments [4]: significant Sirt4 stabilization

Cc1cc(=O)oc2cc(NC(=O)[C@H](CCCCNC(=O)CC(C)(O)CC(=O)O)NC(=O)OCc3ccccc3)ccc12 (stereo partly drawn) [HMG-FdL substrate, 5-(((S)−5-(((benzyloxy)carbonyl)amino)-6-((4-methyl-2-oxo-2H-chromen-7-yl)amino)-6-oxohexyl)amino)-3-hydroxy-3-methyl-5-oxopentanoic acid]
acceptance as Sirt4 substrate ([5]; FdL procedure, fluorescence): readily accepted by Sirt4

NC(=O)c1cccnc1 [NAM, nicotinamide]
Sirt4 stabilization in thermal denaturation shift experiments [4]: no pronounced effects

CC(=O)SCCNC(=O)CCNC(=O)[C@H](O)C(C)(C)COP(=O)(O)OP(=O)(O)OC[C@H]1O[C@@H](n2cnc3c(N)ncnc32)[C@H](O)[C@@H]1OP(=O)(O)O [acetyl-CoA]
bimolecular rate constant k of CPS1 peptide acylation [6]: (1.5 ± 0.4)×10^–10 μM^−1 s^−1

O=C(Nc1ccccc1-c1cn2c(CN3CCNCC3)csc2n1)c1cnc2ccccc2n1 [SRT1720]
effect on Sirt4 de-HMG-ylation activity ([1]; 100 μM compound, high error, effect already in control reaction (assay incompatibility)): weak signal decrease | effect on Sirt4 activity in HMG-FdL assay ([5]; 1 µM hSirt4, 500 µM HMG-FdL substrate, 500 µM NAD+, n = 2 (Fig. 4c)): no effect on Sirt4 activity

Unmodified CypA: recombinant Cyclophilin A, untreated
Sirt4 deacylation signal with CypA protein as substrate [1]: did not yield a significant deacylation signal

HMG-CypA: recombinant Cyclophilin A modified with HMG-CoA (1–7 HMG-modifications)
Sirt4 deacylation signal with CypA protein as substrate [1]: strong, substrate concentration dependent signal

O=C(O)CCCC[C@@H]1CCSS1 (racemic) [lipoic acid]
effect on Sirt4 de-HMG-ylation activity [7]: inhibits | effect on Sirt4 deacetylation activity [7]: inhibits
